# Columns and labels:
# Test in all cases: GR value, 72 h; higher = faster growth (1 = untreated, <0 = killing);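 further: breast cancer and non-malignant breast epithelial lines, nine half-log doses, viable cells counted by Hoechst and LIVE/DEAD dye imaging versus time-zero plates and DMSO controls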
# [1] = compound: Cc1nc(NC(=O)N2CCC[C@H]2C(N)=O)sc1-c1ccnc(C(C)(C)C(F)(F)F)c1 [Alpelisib/BYL719]
# [2] = compound: C=CCn1c(=O)c2cnc(Nc3ccc(N4CCN(C)CC4)cc3)nc2n1-c1cccc(C(C)(C)O)n1 [AZD1775]
# [3] = compound: CC(C)NC[C@@H](C(=O)N1CCN(c2ncnc3c2[C@H](C)C[C@H]3O)CC1)c1ccc(Cl)cc1 [Ipatasertib/GDC0068]
# [4] = compound: COc1cccc2c1C(=O)c1c(O)c3c(c(O)c1C2=O)C[C@@](O)(C(=O)CO)C[C@@H]3O[C@H]1C[C@H](N)[C@H](O)[C@H](C)O1 [Doxorubicin]
# [5] = compound: COc1cc2nccc(Oc3ccc(NC(=O)C4(C(=O)Nc5ccc(F)cc5)CC4)cc3)c2cc1OC [Cabozantinib]
# [6] = compound: CN1CCN(CCOc2cc(OC3CCOCC3)c3c(Nc4c(Cl)ccc5c4OCO5)ncnc3c2)CC1 [Saracatinib/AZD0530]
# [7] = compound: CS(=O)(=O)N1CCN(Cc2cc3nc(-c4cccc5[nH]ncc45)nc(N4CCOCC4)c3s2)CC1 [Pictilisib/GDC0941]
# [8] = compound: O=C1NC(=O)[C@@H](c2cn3c4c(cccc24)CCC3)[C@@H]1c1c[nH]c2ccccc12 [Tivantinib/ARQ197]
# [9] = compound: NC(=O)Nc1cc(-c2cccc(F)c2)sc1C(=O)N[C@H]1CCCNC1 [AZD7762]
# [10] = compound: CNC(=O)c1cccc(-c2ccc3c(N4CCOC[C@@H]4C)nc(N4CCOC[C@@H]4C)nc3n2)c1 [AZD2014]
# [11] = compound: CO[C@@H](C)Cn1c(=O)n(C)c2cnc3ccc(-c4cncc(C(C)(C)O)c4)cc3c21
# [12] = compound: O=C(c1cc(Cc2n[nH]c(=O)c3ccccc23)ccc1F)N1CCN(C(=O)C2CC2)CC1 [Olaparib/AZD2281]
cell line,measurement,setting,value
AU565,GR value,[1]; 0.001 µM,0.962 GR
same,GR value,[1]; 0.003162 µM,1.06 GR
same,GR value,[1]; 0.01 µM,0.931 GR
same,GR value,[1]; 0.03162 µM,0.762 GR
same,GR value,[1]; 0.1 µM,0.621 GR
same,GR value,[1]; 0.3162 µM,0.504 GR
same,GR value,[1]; 1 µM,0.215 GR
same,GR value,[1]; 3.162 µM,-0.0201 GR
same,GR value,[1]; 10 µM,-0.464 GR
same,GR value,[2]; 0.001 µM,0.879 GR
same,GR value,[2]; 0.003162 µM,0.913 GR
same,GR value,[2]; 0.01 µM,0.779 GR
same,GR value,[2]; 0.03162 µM,0.585 GR
same,GR value,[2]; 0.1 µM,0.612 GR
same,GR value,[2]; 0.3162 µM,0.521 GR
same,GR value,[2]; 1 µM,0.288 GR
same,GR value,[2]; 3.162 µM,0.207 GR
same,GR value,[2]; 10 µM,-0.514 GR
same,GR value,[3]; 0.001 µM,1.03 GR
same,GR value,[3]; 0.003162 µM,1.08 GR
same,GR value,[3]; 0.01 µM,1.03 GR
same,GR value,[3]; 0.03162 µM,0.996 GR
same,GR value,[3]; 0.1 µM,0.976 GR
same,GR value,[3]; 0.3162 µM,0.809 GR
same,GR value,[3]; 1 µM,0.772 GR
same,GR value,[3]; 3.162 µM,0.55 GR
same,GR value,[3]; 10 µM,0.289 GR
same,GR value,[4]; 0.0003162 µM,1.09 GR
same,GR value,[4]; 0.001 µM,1.03 GR
same,GR value,[4]; 0.003162 µM,1.05 GR
same,GR value,[4]; 0.01 µM,1.01 GR
same,GR value,[4]; 0.03162 µM,0.553 GR
same,GR value,[4]; 0.1 µM,-0.11 GR
same,GR value,[4]; 0.3162 µM,-0.234 GR
same,GR value,[4]; 1 µM,-0.385 GR
same,GR value,[4]; 3.162 µM,-0.452 GR
same,GR value,[5]; 0.001 µM,1.03 GR
same,GR value,[5]; 0.003162 µM,1.04 GR
same,GR value,[5]; 0.01 µM,1.03 GR
same,GR value,[5]; 0.03162 µM,1.06 GR
same,GR value,[5]; 0.1 µM,1.06 GR
same,GR value,[5]; 0.3162 µM,1.12 GR
same,GR value,[5]; 1 µM,0.997 GR
same,GR value,[5]; 3.162 µM,1.02 GR
same,GR value,[5]; 10 µM,0.309 GR
same,GR value,[6]; 0.001 µM,1 GR
same,GR value,[6]; 0.003162 µM,1.03 GR
same,GR value,[6]; 0.01 µM,0.984 GR
same,GR value,[6]; 0.03162 µM,1.03 GR
same,GR value,[6]; 0.1 µM,0.952 GR
same,GR value,[6]; 0.3162 µM,0.942 GR
same,GR value,[6]; 1 µM,0.86 GR
same,GR value,[6]; 3.162 µM,0.671 GR
same,GR value,[6]; 10 µM,0.162 GR
same,GR value,[7]; 0.001 µM,0.964 GR
same,GR value,[7]; 0.003162 µM,0.961 GR
same,GR value,[7]; 0.01 µM,0.898 GR
same,GR value,[7]; 0.03162 µM,0.642 GR
same,GR value,[7]; 0.1 µM,0.37 GR
same,GR value,[7]; 0.3162 µM,0.101 GR
same,GR value,[7]; 1 µM,-0.096 GR
same,GR value,[7]; 3.162 µM,-0.251 GR
same,GR value,[7]; 10 µM,-0.391 GR
same,GR value,[8]; 0.001 µM,1.08 GR
same,GR value,[8]; 0.003162 µM,1.04 GR
same,GR value,[8]; 0.01 µM,1.1 GR
same,GR value,[8]; 0.03162 µM,1.03 GR
same,GR value,[8]; 0.1 µM,0.841 GR
same,GR value,[8]; 0.3162 µM,0.191 GR
same,GR value,[8]; 1 µM,-0.542 GR
same,GR value,[8]; 3.162 µM,-0.468 GR
same,GR value,[8]; 10 µM,-0.479 GR
same,GR value,[9]; 0.001 µM,1.01 GR
same,GR value,[9]; 0.003162 µM,1.01 GR
same,GR value,[9]; 0.01 µM,1.08 GR
same,GR value,[9]; 0.03162 µM,1.03 GR
same,GR value,[9]; 0.1 µM,0.976 GR
same,GR value,[9]; 0.3162 µM,0.756 GR
same,GR value,[9]; 1 µM,0.41 GR
same,GR value,[9]; 3.162 µM,-0.179 GR
same,GR value,[9]; 10 µM,-0.57 GR
same,GR value,[10]; 0.001 µM,0.592 GR
same,GR value,[10]; 0.003162 µM,0.509 GR
same,GR value,[10]; 0.01 µM,0.415 GR
same,GR value,[10]; 0.03162 µM,0.249 GR
same,GR value,[10]; 0.1 µM,0.219 GR
same,GR value,[10]; 0.3162 µM,0.149 GR
same,GR value,[10]; 1 µM,0.106 GR
same,GR value,[10]; 3.162 µM,-0.0159 GR
same,GR value,[10]; 10 µM,-0.0097 GR
same,GR value,[11]; 0.001 µM,0.518 GR
same,GR value,[11]; 0.003162 µM,0.487 GR
same,GR value,[11]; 0.01 µM,0.464 GR
same,GR value,[11]; 0.03162 µM,0.273 GR
same,GR value,[11]; 0.1 µM,0.269 GR
same,GR value,[11]; 0.3162 µM,0.0911 GR
same,GR value,[11]; 1 µM,0.0661 GR
same,GR value,[11]; 3.162 µM,-0.0273 GR
same,GR value,[11]; 10 µM,-0.533 GR
same,GR value,[12]; 0.001 µM,0.901 GR
same,GR value,[12]; 0.003162 µM,1 GR
same,GR value,[12]; 0.01 µM,1.02 GR
same,GR value,[12]; 0.03162 µM,1.04 GR
same,GR value,[12]; 0.1 µM,1 GR
same,GR value,[12]; 0.3162 µM,0.907 GR
same,GR value,[12]; 1 µM,0.942 GR
same,GR value,[12]; 3.162 µM,0.979 GR
same,GR value,[12]; 10 µM,0.577 GR
